According to paper PMC7036995 (Molecules, 2020):
Read-outs that look alike come from different tables or passages of the source. Each block holds one molecule with its values, some of them ahead of it.

How the values were obtained:
[1] = biological target: T1, human serum albumin (HSA) (Homo sapiens, UniProt P02768); experiment: Fluorescence spectroscopy of HSA (Trp fluorescence quenching/enhancement; KD by DynaFit); type: binding; conditions: for change of HSA fluorescence with increasing ligand concentration: λEX = 295 nm, T = 310.15 K, pH 7.4, HSA 5 μM; for Kd: HSA 5 μM, pH 7.4, read-out: KD (Fluor.)
T1 construct: purchased Sigma-Aldrich; host or cells: rice
T1 sequence (P02768 25-609): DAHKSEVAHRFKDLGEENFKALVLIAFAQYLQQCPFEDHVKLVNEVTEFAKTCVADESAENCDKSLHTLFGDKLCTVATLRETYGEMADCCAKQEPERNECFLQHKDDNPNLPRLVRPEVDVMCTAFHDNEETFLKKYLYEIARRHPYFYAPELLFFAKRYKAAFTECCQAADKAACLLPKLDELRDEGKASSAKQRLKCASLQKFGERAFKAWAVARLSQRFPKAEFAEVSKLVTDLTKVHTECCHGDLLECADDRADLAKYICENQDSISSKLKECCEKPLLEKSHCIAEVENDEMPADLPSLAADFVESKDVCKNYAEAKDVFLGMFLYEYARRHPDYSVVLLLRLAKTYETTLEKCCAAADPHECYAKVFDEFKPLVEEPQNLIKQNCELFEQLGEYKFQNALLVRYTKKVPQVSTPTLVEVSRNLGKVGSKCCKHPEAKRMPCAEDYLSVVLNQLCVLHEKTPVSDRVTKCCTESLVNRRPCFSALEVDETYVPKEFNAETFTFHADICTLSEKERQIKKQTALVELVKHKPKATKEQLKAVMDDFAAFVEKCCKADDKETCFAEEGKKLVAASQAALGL
Procedure: To find out if there was any interaction when both studied compounds were present, we performed an analysis of ternary mixtures, [(HSA + Q) + R] and [(HSA + R) + Q], when the first-added compound was pre-incubated with HSA at a constant concentration and the second compound was added at variable concentrations. The concentrations of the first-added drug in the ternary system was 5 μM for Q and 400 μM for R. These concentrations were chosen as an approximate half-saturation point for both compounds.
Therefore, as in previously published research [14], we used the DynaFit software script. Data input consisted of [Ltotal] (total ligand concentrations) for the variable reactant concentrations, [Ptotal] (total protein concentration) for the fixed reactant concentration, and F/F0 for the experimentally observed value. The software calculates [Lfree] (free ligand concentration), creates a semilogarithmic plot of F/F0 vs. [Lfree] and determines the KD value by finding the halfway point in the sigmoid-shaped curve.
Fluorescence spectra were measured in triplicates on a FluoroMax 4 spectrofluorimeter (Horiba Jobin Yvon Scientific, Irvine, CA, USA), equipped with a 1.0 cm path length quartz cell. The slit widths for the excitation and emission were 3.0 nm for all measurements. […] Samples were incubated for 2 min. Buffer background was subtracted from the raw spectra. Fluorescence intensities were corrected for the absorption of excitation light and re-absorption of emitted light to decrease the inner filter using the following relationship [13]:(2) Fcor=Fobs×10^(Aex+Aem)/2 where Fcor and Fobs are the corrected and observed fluorescence intensities, respectively. Aex and Aem are the absorbance values of the experimental solution (including all ligands) at excitation and emission wavelengths, respectively. Corrected spectra were smoothed to minimize the influence of the signal noise.
Fluorescence spectral data after correction and smoothing were used to calculate the dissociation constant (KD) for all studied systems. For evaluation and logarithmic plot fitting we used DynaFit software (version 4.0, BioKin Ltd., Watertown, MA, USA, http://www.biokin.com/dynafit/index.html) using a custom-written script.

[2] = biological target: T2, bovine serum albumin (BSA) (Bos taurus, UniProt P02769); conditions: λEX = 295 nm, T = 310.15 K, pH 7.4, BSA 5 μM
T2 sequence (P02769 25-607): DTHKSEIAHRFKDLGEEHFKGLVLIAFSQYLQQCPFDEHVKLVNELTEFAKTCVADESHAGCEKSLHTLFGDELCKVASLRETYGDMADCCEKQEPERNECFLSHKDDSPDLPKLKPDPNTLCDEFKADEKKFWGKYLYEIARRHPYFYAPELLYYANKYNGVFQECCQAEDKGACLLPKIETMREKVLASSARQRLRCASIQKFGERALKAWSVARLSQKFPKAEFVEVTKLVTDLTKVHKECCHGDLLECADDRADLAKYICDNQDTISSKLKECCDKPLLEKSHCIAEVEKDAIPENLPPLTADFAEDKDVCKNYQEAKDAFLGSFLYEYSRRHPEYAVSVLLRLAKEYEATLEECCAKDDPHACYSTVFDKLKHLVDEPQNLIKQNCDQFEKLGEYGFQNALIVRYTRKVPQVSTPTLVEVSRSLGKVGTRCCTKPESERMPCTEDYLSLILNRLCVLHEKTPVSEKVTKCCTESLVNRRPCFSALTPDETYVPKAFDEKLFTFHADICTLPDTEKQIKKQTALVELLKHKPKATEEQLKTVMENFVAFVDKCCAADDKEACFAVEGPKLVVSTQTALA
Procedure: Conditions: T = 310.15 K, pH = 7.4.
Conditions: λEX = 295 nm, T = 310.15 K, pH = 7.4. The HSA and BSA concentrations were 5 μM; FA concentrations were 0.52, 1.04, 2.08, 4.16, 8.33, 16.66, 33.33, 66.66 and 133.33 μM. R concentrations were 15.6, 31.25, 62.5, 125, 250, 500, 1000, 2000 and 4000 μM.
Fluorescence spectra were measured in triplicates on a FluoroMax 4 spectrofluorimeter (Horiba Jobin Yvon Scientific, Irvine, CA, USA), equipped with a 1.0 cm path length quartz cell. The slit widths for the excitation and emission were 3.0 nm for all measurements. The temperatures used for the measurements were 298.15 K, 303.15 K and 310.15 K, respectively. Samples were incubated for 2 min. Buffer background was subtracted from the raw spectra. Fluorescence intensities were corrected for the absorption of excitation light and re-absorption of emitted light to decrease the inner filter using the following relationship [13]:(2) Fcor=Fobs×10^(Aex+Aem)/2 where Fcor and Fobs are the corrected and observed fluorescence intensities, respectively. Aex and Aem are the absorbance values of the experimental solution (including all ligands) at excitation and emission wavelengths, respectively. Corrected spectra were smoothed to minimize the influence of the signal noise.

[3] = system: HSA; conditions: cited from earlier work; for Kd: Sudlow's Site 1
[4] = system: human serum proteins; conditions: concentration range 0.01 to 10 mg/L, equilibrium dialysis; cited from earlier work
[5] = biological target: T1, human serum albumin (HSA); experiment: Microscale thermophoresis (MST) with RED-NHS labeled HSA; type: binding
Procedure: We performed a full set of MST measurements for mixtures where R was the compound with the concentration gradient.
Figure 9 The MST binding curves for all studied systems. Conditions: T = 297.05 K, pH = 7.4. The concentration of HSA was 20 nM, the starting concentrations of R were 7.15 mM, c(Q) in the ternary system was 20 nM.
For [(HSA + Q) + R] system it was possible to additionally derive KD value from the increase in fluorescence in the initial capillary scans. The mechanism of this feature is the same as in the regular fluorescence experiment (Figure 5).
The MST measurements were performed on Monolith NT.115 (NanoTemper Technologies, GmbH, Germany) instrument using Premium capillaries. HSA sample was labeled using RED-NHS protein labeling kit. Assay buffer was PBS with added 0.1% Pluronic F-127 as the surface agent. Ligand samples were dissolved in DMSO and then diluted with the assay buffer to the final concentration. Serial dilutions of the ligand were prepared, the protein was then added and the mixtures were incubated for 10 min at laboratory temperature. Each experiment was performed in three parallel measurements. The results were evaluated in the instrument software (MO.Control v1.6, NanoTemper Technologies, GmbH, Germany).

[6] = biological target: T2, bovine serum albumin (BSA); conditions: Site 1 of BSA; read-out: dissociation constant KD; cited from earlier work

change of HSA fluorescence with increasing ligand concentration [1]: remains more or less constant
change of BSA fluorescence with increasing ligand concentration [2]: decrease
SMILES: CC(=O)O[C@H]1C[C@@]2(C)[C@@H](C[C@@H](O)[C@H]3[C@@]4(C)CC[C@@H](O)[C@@H](C)[C@@H]4CC[C@@]32C)/C1=C(\CCC=C(C)C)C(=O)O [fusidic acid]

Kd ([1]; binary system HSA + ligand): 2.28 ± 0.61 µM
Kd ([1]; ternary system [(HSA + R) + Q]: HSA pre-incubated with 400 μM R, Q varied): 34.7 ± 15.1 µM
SMILES: O=c1c(O)c(-c2ccc(O)c(O)c2)oc2cc(O)cc(O)c12 [quercetin]
Kd ([3]; ref 13): 6.1 µM
Kd ([3]; ref 14): 6.48 µM
bound to HSA [3]: 99%

KD for binding of R compared with KD for Q ([1]; HSA): more than hundredfold larger
Kd ([1]; binary system HSA + ligand): 1220 ± 677 µM
Kd ([1]; ternary system [(HSA + Q) + R]: HSA pre-incubated with 5 μM Q, R varied): 593 ± 90.6 µM
change of HSA fluorescence with increasing ligand concentration [1]: increases
Kd ([5]; binary system HSA + R, T = 297.05 K, pH 7.4, HSA 20 nM, read-out: KD (MST)): 775 ± 75.3 µM
Kd ([5]; ternary system [(HSA + Q) + R], c(Q) 20 nM, HSA 20 nM, T = 297.05 K, pH 7.4, read-out: KD (MST)): 112 ± 24.6 µM
Kd ([5]; ternary system [(HSA + Q) + R], from increase in fluorescence in the initial capillary scans, c(Q) 20 nM, HSA 20 nM, read-out: KD (MST Fluorescence)): 168 ± 29.8 µM
SMILES: CCOC(=O)[C@H](CCc1ccccc1)N[C@@H](C)C(=O)N1[C@H](C(=O)O)C[C@@H]2CCC[C@@H]21 [ramipril]
bound to human serum proteins [4]: 73%
Kd [6]: 28.5 µM

SMILES: C[C@H](N[C@@H](CCc1ccccc1)C(=O)O)C(=O)N1[C@H](C(=O)O)C[C@@H]2CCC[C@@H]21 [ramiprilat]
bound to human serum proteins [4]: 56%
